According to ChEMBL document CHEMBL1649335, “Discovery of {1-[4-(2-{hexahydropyrrolo[3,4-c]pyrrol-2(1H)-yl}-1H-benzimidazol-1-yl)piperidin-1-yl]cyclooctyl}methanol, systemically potent novel non-peptide agonist of nociceptin/orphanin FQ receptor as analgesic for the treatment of neuropathic pain: design, synthesis, and structure-activity …” (Bioorg Med Chem, 2010):
Active and inactive are the calls of the source.

Experiments:
Rattus norvegicus [1] = species: Rattus norvegicus; assay: Stimulation of rat adenylate cyclase at 1 uM relative to basal activity
Rattus norvegicus [2] = assay: Antiallodynic activity against von Frey hair mechanically stimulated neuropathic pain in Sprague-Dawley rat assessed as increase of response threshold at 1 to 30 mg/kg, sc; type: functional, organism-based; settings: TDE = time-dependent effect
Rattus norvegicus [3] = assay: Antiallodynic activity against von Frey hair mechanically stimulated neuropathic pain in Sprague-Dawley rat assessed as increase of response threshold at 30 mg/kg, sc after 1 hr relative to control; type: functional; settings: route subcutaneous
[4] = target: Muscarinic acetylcholine receptor (Rattus norvegicus) (UniProt P08482+P08483+P08485+P08911+P10980); assay: Inhibition of rat muscarinic M receptor at 1 uM relative to control
Rattus norvegicus [5] = assay: Antiallodynic activity against von Frey hair mechanically stimulated neuropathic pain in Sprague-Dawley rat assessed as effect on allodynia in contralateral paw at 1 to 30 mg/kg, sc after 30 mins; type: functional, organism-based
Rattus norvegicus [6] = assay: Antiallodynic activity against von Frey hair mechanically stimulated neuropathic pain in Sprague-Dawley rat assessed as effect on allodynia in contralateral paw at 5.5 to 170 nmol/site, icv after 1 hr; type: functional, organism-based
Rattus norvegicus [7] = species: Rattus norvegicus; assay: Inhibition of rat glutamate receptor at 1 uM relative to control
Rattus norvegicus [8] = assay: Antiallodynic activity against von Frey hair mechanically stimulated neuropathic pain in intrathecally dosed Sprague-Dawley rat assessed as assessed as minimum effective dose to increase of response threshold per site after 1 hr; type: functional
Rattus norvegicus [9] = assay: Antiallodynic activity against von Frey hair mechanically stimulated neuropathic pain in Sprague-Dawley rat assessed as effect on allodynia in contralateral paw at 5.5 to 170 nmol/site administered intrathecally after 1 hr; type: functional, organism-based
[10] = target: Acetylcholinesterase (Homo sapiens) (UniProt P22303); assay: Inhibition of human acetylcholine esterase at 1 uM relative to control
Acetylcholinesterase (Homo sapiens), sequence (P22303 whole entry): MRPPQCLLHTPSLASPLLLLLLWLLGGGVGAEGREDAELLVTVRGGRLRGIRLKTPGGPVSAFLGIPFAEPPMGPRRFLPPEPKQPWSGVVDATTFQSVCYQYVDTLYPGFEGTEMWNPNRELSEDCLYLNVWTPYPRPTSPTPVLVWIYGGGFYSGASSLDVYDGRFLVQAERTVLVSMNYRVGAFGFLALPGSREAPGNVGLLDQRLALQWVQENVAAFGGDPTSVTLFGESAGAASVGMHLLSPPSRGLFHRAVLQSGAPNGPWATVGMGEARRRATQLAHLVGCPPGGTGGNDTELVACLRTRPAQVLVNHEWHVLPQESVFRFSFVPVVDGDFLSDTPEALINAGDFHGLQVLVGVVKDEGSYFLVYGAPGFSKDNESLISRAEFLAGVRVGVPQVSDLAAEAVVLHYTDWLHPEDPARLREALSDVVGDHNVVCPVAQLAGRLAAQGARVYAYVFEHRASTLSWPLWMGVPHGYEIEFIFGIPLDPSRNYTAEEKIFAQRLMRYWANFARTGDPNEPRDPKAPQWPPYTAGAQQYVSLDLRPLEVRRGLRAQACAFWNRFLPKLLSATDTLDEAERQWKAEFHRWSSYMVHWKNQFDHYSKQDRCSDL

Rattus norvegicus [11] = assay: Antiallodynic activity against von Frey hair mechanically stimulated neuropathic pain in sc dosed Sprague-Dawley rat assessed as increase of response threshold after 2 hrs; type: functional
Rattus norvegicus [12] = species: Rattus norvegicus; assay: Inhibition of rat thyroid hormone receptor at 1 uM relative to control
[13] = target: L-type calcium channel, dihydropyridine site (Rattus norvegicus, UniProt P22002+P27732+Q02485); assay: Inhibition of rat L-type calcium channel dihydropyridine site at 1 uM relative to control
[14] = target: Sodium-dependent dopamine transporter (Homo sapiens) (UniProt Q01959); assay: Inhibition of human dopamine transporter at 1 uM relative to control
Sodium-dependent dopamine transporter (Homo sapiens), sequence (Q01959 whole entry): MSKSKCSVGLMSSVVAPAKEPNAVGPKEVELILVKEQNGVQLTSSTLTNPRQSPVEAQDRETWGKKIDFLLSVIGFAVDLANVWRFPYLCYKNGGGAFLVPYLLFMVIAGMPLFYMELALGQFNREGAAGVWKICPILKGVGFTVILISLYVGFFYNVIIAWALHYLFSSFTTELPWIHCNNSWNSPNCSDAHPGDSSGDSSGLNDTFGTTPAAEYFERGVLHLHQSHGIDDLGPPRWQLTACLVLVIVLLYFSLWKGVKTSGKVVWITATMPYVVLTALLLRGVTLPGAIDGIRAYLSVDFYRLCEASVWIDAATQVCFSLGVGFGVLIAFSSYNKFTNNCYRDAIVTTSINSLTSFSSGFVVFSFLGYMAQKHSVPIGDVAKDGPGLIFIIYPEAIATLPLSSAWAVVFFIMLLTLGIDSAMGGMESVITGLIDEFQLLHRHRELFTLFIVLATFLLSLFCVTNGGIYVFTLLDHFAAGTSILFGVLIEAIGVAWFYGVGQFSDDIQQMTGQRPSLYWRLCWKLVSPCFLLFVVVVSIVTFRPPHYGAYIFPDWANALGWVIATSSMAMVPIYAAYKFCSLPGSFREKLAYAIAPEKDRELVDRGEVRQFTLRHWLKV

Mu-type opioid receptor = Mu-type opioid receptor (Homo sapiens, UniProt P35372)
Mu-type opioid receptor, sequence (P35372 whole entry): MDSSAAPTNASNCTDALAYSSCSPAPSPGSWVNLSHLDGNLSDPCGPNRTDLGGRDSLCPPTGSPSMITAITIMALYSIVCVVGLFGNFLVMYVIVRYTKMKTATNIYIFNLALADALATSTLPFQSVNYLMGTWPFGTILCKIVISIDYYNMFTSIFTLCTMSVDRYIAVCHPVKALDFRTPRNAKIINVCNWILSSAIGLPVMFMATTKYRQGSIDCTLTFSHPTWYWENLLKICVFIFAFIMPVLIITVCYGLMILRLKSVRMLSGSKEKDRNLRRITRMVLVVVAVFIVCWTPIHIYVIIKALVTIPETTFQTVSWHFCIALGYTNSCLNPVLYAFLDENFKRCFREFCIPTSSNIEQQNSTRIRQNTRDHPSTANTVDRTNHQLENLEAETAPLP

Nociceptin receptor = Nociceptin receptor (Homo sapiens, UniProt P41146)
Nociceptin receptor, sequence (P41146 whole entry): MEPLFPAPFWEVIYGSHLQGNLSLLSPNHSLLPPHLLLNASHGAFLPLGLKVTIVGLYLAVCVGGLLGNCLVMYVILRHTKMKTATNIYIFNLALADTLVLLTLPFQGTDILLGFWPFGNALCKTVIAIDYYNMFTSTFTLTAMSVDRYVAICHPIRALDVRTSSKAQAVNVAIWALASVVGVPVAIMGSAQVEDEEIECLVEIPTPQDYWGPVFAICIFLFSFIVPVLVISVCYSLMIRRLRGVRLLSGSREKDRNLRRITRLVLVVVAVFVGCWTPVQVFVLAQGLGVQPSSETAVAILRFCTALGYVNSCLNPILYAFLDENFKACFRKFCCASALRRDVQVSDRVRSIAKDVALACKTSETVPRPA

[15] = target: D(1A) dopamine receptor (Homo sapiens) (UniProt P21728); assay: Inhibition of human dopamine D1 receptor at 1 uM relative to control
D(1A) dopamine receptor (Homo sapiens), sequence (P21728 whole entry): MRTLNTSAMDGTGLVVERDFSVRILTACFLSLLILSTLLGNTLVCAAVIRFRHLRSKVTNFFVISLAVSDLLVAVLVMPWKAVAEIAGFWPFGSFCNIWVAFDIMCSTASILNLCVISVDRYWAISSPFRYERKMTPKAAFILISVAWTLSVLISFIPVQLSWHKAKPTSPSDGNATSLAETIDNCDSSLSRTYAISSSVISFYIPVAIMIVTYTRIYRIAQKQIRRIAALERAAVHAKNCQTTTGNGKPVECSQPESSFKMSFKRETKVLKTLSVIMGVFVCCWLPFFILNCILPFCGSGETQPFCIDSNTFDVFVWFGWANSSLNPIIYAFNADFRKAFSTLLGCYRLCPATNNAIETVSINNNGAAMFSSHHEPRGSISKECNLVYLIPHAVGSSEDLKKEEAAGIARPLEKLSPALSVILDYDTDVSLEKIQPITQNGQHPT

Rattus norvegicus [16] = assay: Toxicity in von Frey hair mechanically stimulated neuropathic pain Sprague-Dawley rat model assessed as sedation effect at up to 30 mg/kg, sc; type: organism-based; design: dose 30 mg/kg, route subcutaneous; settings: in vivo
[17] = Drug level Sprague-Dawley rat spinal cord at 10 mg/kg, sc after 0.5 hrs; type: ADME, organism-based; design: dose 10 mg/kg, route subcutaneous; settings: read-out: Drug uptake
Rattus norvegicus [18] = assay: Antiallodynic activity against von Frey hair mechanically stimulated neuropathic pain in intrathecally dosed Sprague-Dawley rat assessed as increase of response threshold per site after 1 hr; type: functional
Rattus norvegicus [19] = species: Rattus norvegicus; assay: Inhibition of rat GABA receptor at 1 uM relative to control
Rattus norvegicus [20] = species: Rattus norvegicus; assay: Inhibition of rat K+ATP channel at 1 uM relative to control
Rattus norvegicus [21] = assay: Antiallodynic activity against von Frey hair mechanically stimulated neuropathic pain in Sprague-Dawley rat assessed as effect on allodynia in contralateral paw at 1 to 30 mg/kg, sc after 2 hrs; type: functional, organism-based
Rattus norvegicus [22] = assay: Antiallodynic activity against von Frey hair mechanically stimulated neuropathic pain in Sprague-Dawley rat assessed as effect on allodynia in contralateral paw at 1 to 30 mg/kg, sc after 4 hrs; type: functional, organism-based
Rattus norvegicus [23] = assay: Antiallodynic activity against von Frey hair mechanically stimulated neuropathic pain in sc dosed Sprague-Dawley rat assessed as increase of response threshold after 4 hrs; type: functional
Rattus norvegicus [24] = assay: Antiallodynic activity against von Frey hair mechanically stimulated neuropathic pain in intrathecally dosed Sprague-Dawley rat assessed as increase of response threshold per site after 20 mins; type: functional
[25] = Drug level Sprague-Dawley rat plasma at 10 mg/kg, sc after […]; type: ADME, organism-based; design: dose 10 mg/kg, route subcutaneous; settings: read-out: Drug uptake
Homo sapiens = species: Homo sapiens; assay: Inhibition of human muscle-type nicotinic acetylcholine receptor at 1 uM relative to control
Rattus norvegicus [26] = assay: Antiallodynic activity against von Frey hair mechanically stimulated neuropathic pain in Sprague-Dawley rat assessed as increase of response threshold per site at 55 nmol/site administered intrathecally after 1 hr relative to control; type: functional
Rattus norvegicus [27] = assay: Toxicity in von Frey hair mechanically stimulated neuropathic pain Sprague-Dawley rat model assessed as sedation effect at up to 170 nmol/site, administered intrathecally; type: organism-based; settings: in vivo, icv_or_intrathecal
[28] = target: Substance-K receptor (Homo sapiens) (UniProt P21452); assay: Inhibition of human tachykinin NK2 receptor at 1 uM relative to control
Substance-K receptor (Homo sapiens), sequence (P21452 whole entry): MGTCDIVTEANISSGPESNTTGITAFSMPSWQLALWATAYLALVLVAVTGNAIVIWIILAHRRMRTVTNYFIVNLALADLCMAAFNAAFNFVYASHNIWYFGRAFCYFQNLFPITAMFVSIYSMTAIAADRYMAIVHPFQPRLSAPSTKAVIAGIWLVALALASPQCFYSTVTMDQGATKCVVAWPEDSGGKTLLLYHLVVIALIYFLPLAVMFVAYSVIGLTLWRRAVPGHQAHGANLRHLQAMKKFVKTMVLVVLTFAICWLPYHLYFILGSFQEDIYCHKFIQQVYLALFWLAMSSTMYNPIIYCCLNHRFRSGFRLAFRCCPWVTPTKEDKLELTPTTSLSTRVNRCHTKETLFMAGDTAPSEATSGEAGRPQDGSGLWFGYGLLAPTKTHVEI

Rattus norvegicus [29] = assay: Antiallodynic activity against von Frey hair mechanically stimulated neuropathic pain in icv dosed Sprague-Dawley rat assessed as increase of response threshold per site after 20 mins; type: functional
[30] = target: D(3) dopamine receptor (Homo sapiens) (UniProt P35462); assay: Inhibition of human dopamine D3 receptor at 1 uM relative to control
[31] = target: Small conductance calcium-activated potassium channel protein 1 (Rattus norvegicus) (UniProt P70606); assay: Inhibition of rat SKCa channel at 1 uM relative to control
Rattus norvegicus [32] = species: Rattus norvegicus; assay: Stimulation of rat guanylate cyclase at 1 uM relative to basal activity
Rattus norvegicus [33] = species: Rattus norvegicus; assay: Inhibition of rat phospholipase C at 1 uM relative to control
Rattus norvegicus [34] = assay: Toxicity in von Frey hair mechanically stimulated neuropathic pain Sprague-Dawley rat model assessed as respiratory depression at up to 170 nmol/site, icv; type: organism-based; settings: in vivo, icv_or_intrathecal
[35] = target: Histamine H2 receptor (Cavia porcellus) (UniProt P47747); assay: Inhibition of guinea pig histamine H2 receptor at 1 uM relative to control
Rattus norvegicus [36] = assay: Antiallodynic activity against von Frey hair mechanically stimulated neuropathic pain in sc dosed Sprague-Dawley rat assessed as assessed as minimum effective dose to increase of response threshold after 30 mins; type: functional
[37] = target: Histamine H3 receptor (Rattus norvegicus) (UniProt Q9QYN8); assay: Inhibition of rat histamine H3 receptor at 1 uM relative to control
Histamine H3 receptor (Rattus norvegicus), sequence (Q9QYN8 whole entry): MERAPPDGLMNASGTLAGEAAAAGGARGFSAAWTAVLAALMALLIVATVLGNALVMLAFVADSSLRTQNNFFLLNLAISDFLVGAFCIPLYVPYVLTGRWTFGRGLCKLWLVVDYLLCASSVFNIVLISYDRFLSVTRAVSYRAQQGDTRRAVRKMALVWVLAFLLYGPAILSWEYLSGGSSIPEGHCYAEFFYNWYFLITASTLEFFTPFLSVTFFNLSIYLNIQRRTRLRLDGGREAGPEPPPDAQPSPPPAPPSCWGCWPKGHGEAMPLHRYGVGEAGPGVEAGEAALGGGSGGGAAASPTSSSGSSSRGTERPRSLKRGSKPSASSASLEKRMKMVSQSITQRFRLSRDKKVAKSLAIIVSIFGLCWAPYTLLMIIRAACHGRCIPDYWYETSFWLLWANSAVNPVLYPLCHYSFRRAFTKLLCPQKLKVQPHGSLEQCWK

[38] = target: Glucocorticoid receptor (Homo sapiens) (UniProt P04150); assay: Inhibition of human glucocorticoid receptor at 1 uM relative to control
Glucocorticoid receptor (Homo sapiens), sequence (P04150 whole entry): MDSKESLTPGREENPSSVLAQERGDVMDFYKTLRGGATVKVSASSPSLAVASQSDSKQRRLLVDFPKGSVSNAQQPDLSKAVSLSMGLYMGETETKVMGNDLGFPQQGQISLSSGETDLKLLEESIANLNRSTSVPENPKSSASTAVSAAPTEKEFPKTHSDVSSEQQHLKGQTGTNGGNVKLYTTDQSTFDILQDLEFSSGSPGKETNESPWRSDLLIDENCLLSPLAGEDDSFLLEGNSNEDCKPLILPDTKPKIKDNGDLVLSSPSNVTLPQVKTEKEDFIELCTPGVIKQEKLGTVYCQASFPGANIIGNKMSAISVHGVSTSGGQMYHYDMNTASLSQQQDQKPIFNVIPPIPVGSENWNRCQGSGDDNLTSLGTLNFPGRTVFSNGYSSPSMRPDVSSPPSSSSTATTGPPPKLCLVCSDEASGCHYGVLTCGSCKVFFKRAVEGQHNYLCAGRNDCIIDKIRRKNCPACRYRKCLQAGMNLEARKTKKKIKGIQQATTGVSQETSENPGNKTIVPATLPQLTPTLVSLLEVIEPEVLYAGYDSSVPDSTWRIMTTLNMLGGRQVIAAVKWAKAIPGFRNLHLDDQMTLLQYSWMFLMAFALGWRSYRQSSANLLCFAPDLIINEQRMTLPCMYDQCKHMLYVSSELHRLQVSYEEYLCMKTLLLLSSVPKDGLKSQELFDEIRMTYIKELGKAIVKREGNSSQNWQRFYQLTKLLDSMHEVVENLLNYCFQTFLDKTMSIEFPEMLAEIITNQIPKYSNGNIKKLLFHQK

[39] = target: Estrogen receptor (Homo sapiens) (UniProt P03372); assay: Inhibition of human estrogen receptor beta at 1 uM relative to control
Estrogen receptor (Homo sapiens), sequence (P03372 whole entry): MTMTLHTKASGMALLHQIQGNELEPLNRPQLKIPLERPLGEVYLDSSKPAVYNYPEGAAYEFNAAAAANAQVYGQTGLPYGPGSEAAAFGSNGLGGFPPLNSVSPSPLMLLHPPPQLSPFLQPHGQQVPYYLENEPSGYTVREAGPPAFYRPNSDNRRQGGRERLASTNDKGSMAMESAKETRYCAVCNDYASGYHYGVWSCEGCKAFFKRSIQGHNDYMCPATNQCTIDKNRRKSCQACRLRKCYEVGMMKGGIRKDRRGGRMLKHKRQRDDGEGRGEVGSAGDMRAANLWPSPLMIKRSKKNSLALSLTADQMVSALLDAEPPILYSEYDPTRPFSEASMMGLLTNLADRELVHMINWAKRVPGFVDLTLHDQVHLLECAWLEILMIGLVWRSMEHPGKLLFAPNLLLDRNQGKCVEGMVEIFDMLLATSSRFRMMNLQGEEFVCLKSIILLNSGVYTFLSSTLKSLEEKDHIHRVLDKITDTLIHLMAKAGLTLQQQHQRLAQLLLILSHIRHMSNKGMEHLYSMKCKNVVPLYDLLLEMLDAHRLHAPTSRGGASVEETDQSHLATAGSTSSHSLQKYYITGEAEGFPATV

Rattus norvegicus [40] = assay: Toxicity in von Frey hair mechanically stimulated neuropathic pain Sprague-Dawley rat model assessed as respiratory depression at up to 30 mg/kg, sc; type: organism-based; design: dose 30 mg/kg, route subcutaneous; settings: in vivo
Rattus norvegicus [41] = assay: Antiallodynic activity against von Frey hair mechanically stimulated neuropathic pain in sc dosed Sprague-Dawley rat assessed as assessed as minimum effective dose to increase of response threshold after 2 hrs; type: functional

## OCC1(N2CCC(n3c(N4CC5CNCC5C4)nc4ccccc43)CC2)CCCCCCC1 (stereo unspecified)
Rattus norvegicus [1]
  inhibition: < 10%
Rattus norvegicus [2]
  Activity: tde
Rattus norvegicus [3]
  Activity: 79.3%
[4]
  inhibition: 38%
Rattus norvegicus [5]
  Activity: inactive
Rattus norvegicus [6]
  Activity: inactive
Rattus norvegicus [7]
  inhibition: < 10%
Rattus norvegicus [8]
  MED: 55 nmol
Rattus norvegicus [9]
  Activity: inactive
[10]
  inhibition: < 10%
Rattus norvegicus [11]
  ED50: > 30 mg/kg
Rattus norvegicus [12]
  inhibition: < 10%
[13]
  inhibition at 1 µM: < 10%
[14]
  inhibition: < 10%
Mu-type opioid receptor
  EC50: 3.5 µM
Nociceptin receptor
  EC50: 12 nM
[15]
  inhibition: < 10%
Rattus norvegicus [16]
  Activity: Non-toxic
[17]
  concentration at 0.5 h: 48 ng/mL
Rattus norvegicus [18]
  Activity: Dose-dependent effect
  ED50: >170 nmol
Rattus norvegicus [19]
  inhibition: < 10%
Rattus norvegicus [20]
  inhibition: < 10%
Rattus norvegicus [21]
  Activity: inactive
Rattus norvegicus [22]
  Activity: inactive
Rattus norvegicus [23]
  ED50: > 30 mg/kg
Rattus norvegicus [24]
  Activity: Dose-dependent effect
  ED50: 80 nmol
[25]
  concentration at […]: 504 ng/mL
Homo sapiens
  inhibition: 21%
Rattus norvegicus [26]
  Activity: 31.1%
Rattus norvegicus [27]
  Activity: Non-toxic
[28]
  inhibition: < 10%
Rattus norvegicus [29]
  ED50: 170 nmol
[30]
  inhibition: < 10%
[31]
  inhibition: < 10%
Rattus norvegicus [32]
  inhibition: < 10%
Rattus norvegicus [33]
  inhibition: < 10%
Rattus norvegicus [34]
  Activity: Non-toxic
[35]
  inhibition: 22%
Rattus norvegicus [36]
  MED: 30 mg/kg
[37]
  inhibition: < 10%
[38]
  inhibition: < 10%
[39]
  inhibition: < 10%
Rattus norvegicus [40]
  Activity: Non-toxic
Rattus norvegicus [41]
  MED: 30 mg/kg
